Data as given in publication PMC9229894, “In Silico, In Vitro, and Pharmacokinetic Studies of UBMC-4, a Potential Novel Compound for Treating against Trypanosoma cruzi” (Pathogens, 2022).

Columns and labels:
[1] = system: T. cruzi Tulahuen strain amastigotes; experiment: Trypanocidal activity in intracellular amastigotes (β-galactosidase, U937 macrophages); format: cell-based, Trypanosoma cruzi
Protocol: To obtain intracellular amastigotes, 2.5 × 10^6 U937 differentiated macrophage cells were infected with T. cruzi epimastigotes (Tulahuen strain producing β-galactosidase, 24 h of growing) in a 5:1 parasite/cell ratio. To calculate EC50, 100 μL of UBMC-4 were added at four serial dilutions ([…]) to each well, and benznidazole (bz) was added at an initial concentration of 20 µg/mL and 6 serial 2-fold dilutions were used to determine its EC50 as a control of the effectiveness of the experiment, in addition to the control of the viability of the parasites (cells without drug treatment), from the blank of the culture medium (medium without cells), in duplicate. The cells were incubated for 72 h at 37 °C with 5% of CO2. All medium was removed and 100 µL of substrate for β-galactosidase diluted in PBS (chlorophenol β-d-galactopyranoside-CPRG network; Sigma-Aldrich, St Louis, MO, USA, at 100 mM and 0.1% Nonidet P-40) was added to each well and incubated at 37 °C for 3 h. The amount of chlorophenol red released was read at 570 nm in a spectrophotometer (Varioskan TM). Infected cells were used as negative control while infected cells treated with benznidazole were used as a positive control (trypanocidal activity) for the assay. RPMI-1640 medium was used as a negative control. Non-specific absorbance was corrected by subtracting the OD of the blank sample. Determinations were done in triplicate in at least two independent experiments.
The trypanocidal activity was determined based on the percentage of decrease of amastigotes determined using equation, as follows: % reduction of infection = 100 − (O.D. of treated infected cells)/(O.D. of non-treated infected cells) × 100. The half maximal effective concentration (EC50) was calculated by the linear regression model Probit using Graphpad Prism software.

[2] = Cytotoxicity, MTT method, CaCo2; format: cell-based; conditions: human, Caco-2, read-out: LC50 median lethal concentration CaCo2
Protocol: (§1) Cytotoxicity of UBMC-4 was tested in HepG2, CaCo2, and huMDM cell lines according to the effect on cell growth determined by the MTT microenzimatic method, as described by others. Briefly, 2.0 × 10^4 U-937 and huMDM or 2.5 × 10^4 HepG2 and CaCo2 cells were dispensed in 200 µL into each well of a 96-well tissue culture plate containing the corresponding culture medium. Then, 100 µL/well of each compound at a concentration of […] were added and plates were incubated at 37 °C, 5% CO2. After 72 h of incubation, 20 μL of MTT (Sigma-Aldrich, St Louis, MO, USA) were added to each well and plates were incubated for 3 h at 37 °C, 5% CO2. […] The concentration of formazan was determined at 570 nm in a spectrophotometer (Varioskan Flash Multimode Reader, Thermo Scientific, Waltham, MA, USA). […] Cytotoxicity was determined according to the percentages of viability and cell growth inhibition obtained for each compound, bz, doxorubicin, or medium alone. Non-specific absorbance was corrected by subtracting the OD of the blank (culture medium). Percentages of mortality were calculated using equation, as follows: % mortality = 100 − [(O.D. of treated cells)/(O.D. of non-treated cells)] × 100. The half maximal effective concentration (EC50) was calculated by the linear regression model Probit using Graphpad Prism software.

[3] = system: intracellular forms of Tulahuen strain; set-up: method as in Araujo-Lima et al. 2018 [44]; conditions: ref Araujo-Lima et al. 2018 [44]; read-out: EC50 against intracellular forms of Tulahuen strain; cited from earlier work
[4] = Cytotoxicity, MTT method, HepG2; format: cell-based; conditions: human, HepG2 cells, read-out: LC50 median lethal concentration HepG2
Protocol: as §1

[5] = Cytotoxicity, MTT method, huMDM; format: cell-based; conditions: human, monocyte-derived macrophages (huMDM), read-out: LC50 median lethal concentration huMDM
Protocol: as §1

[6] = system: T. cruzi trypomastigotes; experiment: Flow cytometry of apoptosis-like markers in trypomastigotes; format: cell-based, Trypanosoma cruzi; conditions: 10 µM
Protocol: Apoptosis-like markers were analyzed by triple staining using 3,3′-dihexyloxacarbocyanine (DiOC6), propidium iodide (PI), and Hoechst from Thermo Fisher Scientific to determine the change of mitochondrial membrane potential (ΔΨm), cell membrane damage, and impairment of cell cycle, respectively. All readings were performed on a BD FACSCanto II 4/2/2 Sys IVD flow cytometer, and data obtained were analyzed using the FlowJo7.6.2 software. Differences between treatments were determined by a two-way ANOVA for multiple comparisons with 95% significance using GraphPad Prism 8. In all cases, 20 µL of parasites (5 × 10^6/mL) were stained per treatment with 300 µL of Hanks’ balanced saline solution (HBSS) and 10 µL of the staining mix containing […], 0.5 µL of 70 nM DiOC6, and 0.5 µL of 10 mg/mL Hoechst. Subsequently, parasites were incubated at room temperature for 15 min until reading.
The same markers mentioned above were used for T. cruzi trypomastigotes. A total of 1 × 10^6 trypomastigotes were centrifuged at 1800 RCF for 5 min to remove the culture medium. Parasites were cultured at […] in PBS or 10% FBS-supplemented DMEM with or without 10 µM UBMC-4, 10 µM chloroquine, and 10 µM UBMC-4/chloroquine for 2 h and 5 h. All experiments were compared to a culture setup using bz as control compound. Three biological replicates and three experimental replicates were applied to data collected at each time point for experimental conduction of every portion of the study. In all cases, ANOVA was applied for multiple comparisons after determining that data were normal.

Row | SMILES | selectivity index (SI) between huMDM and T. cruzi amastigotes ([1]; LC50 huMDM / EC50 amastigotes) | EC50 ([1]; Trypanosoma cruzi, TULAHUEN, U-937, 72 h, read-out: EC50 half maximal effective concentration for T. cruzi amastigotes) [µM] | CC50 at 72 h [2] [µM] | EC50 [3] [µM] | CC50 at 72 h [4] [µM] | CC50 at 72 h [5] [µM] | mitochondrial membrane potential change ([6]; normal nutrition conditions) | mitochondrial membrane potential change ([6]; nutritional stress conditions)
1 | O=C(Cn1ccnc1[N+](=O)[O-])NCc1ccccc1 [Benznidazole, benznidazole, reference compound] | > 655 | 1.16 ± 0.03 | > 760 | 1.8 ± 0.7 | > 760 | > 760 | – | –
2 | CCN(CC)CCCC(C)Nc1ccnc2cc(Cl)ccc12 (centres unmarked) [chloroquine, reference compound] | – | – | – | – | – | – | no alteration in the mitochondrial membrane potential | hyperpolarization continued just as in the untreated controls
